This note sets out measurements from patent US20250127801A1, “BRIDGED TRICYCLIC CARBAMOYLPYRIDONE COMPOUNDS AND USES THEREOF” (priority 2023, published 2025).

Series [1] has as its system HIV-1 (IIIB). Nature of the series: microbe, parasite or virus in culture. It counts as cell-based.
Series [2] in a line: in vitro. Particulars: human; for CC50 at 5 days: uninfected MT-4 cells.
Series [3] is described as follows: physchem. The settings on record: 23 °C, thermodynamic from solid; for solubility thermodynamic: fassif; for solubility thermodynamic at 24 h: FaSSIF.
[4] abbreviates: Human immunodeficiency virus 1, IIIB, MT4, 120 h, read-out: MT4 EC50 (nM).
The mark [5] stands for this setting: Human immunodeficiency virus 1, MT4, 120 h, HIV-1 (IIIB) replication in MT-4 cells, 5 days incubation, Cell Titer Glo, read-out: MT4 EC50.

Converted amounts (≈) assume the structure as drawn. Like-named read-outs stand apart in the source and are kept apart here. A value given as a limit tells only on which side of the number the result lay.

For the compound `CC1=NO[C@@]2(CC[C@H](C)N3C[C@H]2n2cc(C(=O)NCc4ccc(F)cc4F)c(=O)c(OC(=O)N(C)c4ncccc4CN(CCO)C(=O)OCOP(=O)(O)O)c2C3=O)C1` [Compound 35, (phosphonooxy)methyl ((2-(((((3′S,5S,7′R)-10′-((2,4-difluorobenzyl)carbamoyl)-3,3′-dimethyl-1′,11′-dioxo-1′,4′,5′,11′-tetrahydro-3′H,4H,7′H-spiro[isoxazole-5,6′-[2,7]methanopyrido[1,2-a][1,4]diazonin]-12′-yl)oxy)carbonyl)(methyl)amino)pyridin-3-yl)methyl)(2-hydroxyethyl)carbamate], the EC50 – broadly, the midpoint of the concentration-response curve – in series [1] (setting [4]) turned out to be 2.04 nM. In series [2], this compound displayed a CC50 of 11600 nM. Besides, the solubility (thermodynamic) (as a rule, the concentration in solution at equilibrium with solid) in series [3] is 4460 µg/mL (≈ 5.26 mM).
Regarding `CC1=NO[C@@]2(CC[C@H](C)N3C[C@H]2n2cc(C(=O)NCc4ccc(F)cc4F)c(=O)c(OCc4oc(=O)oc4C)c2C3=O)C1` [Compound 22, (3′S,5S,7′R)—N-(2,4-difluorobenzyl)-3,3′-dimethyl-12′-((5-methyl-2-oxo-1,3-dioxol-4-yl)methoxy)-1′,11′-dioxo-1′,4′,5′,11′-tetrahydro-3′H,4H,7′H-spiro[isoxazole-5,6′-[2,7]methanopyrido[1,2-a][1,4]diazonine]-10′-carboxamide], the EC50 in series [1] (setting [5]) came out at 1.18 nM. In series [2], this compound returned a CC50 at 5 days of 12400 nM. This compound yielded a solubility (thermodynamic) at 24 h in series [3] of 90 µg/mL (≈ 0.15 mM).
In the case of `CC1=NO[C@@]2(CC[C@H](C)N3C[C@H]2n2cc(C(=O)NCc4ccc(F)cc4F)c(=O)c(OC(=O)N(C)c4ncccc4CN(CC(=O)OCc4ccccc4)C(=O)OCOP(=O)(O)O)c2C3=O)C1` [Compound 33, benzyl N-((2-(((((3′S,5S,7′R)-10′-((2,4-difluorobenzyl)carbamoyl)-3,3′-dimethyl-1′,11′-dioxo-1′,4′,5′,11′-tetrahydro-3′H,4H,7′H-spiro[isoxazole-5,6′-[2,7]methanopyrido[1,2-a][1,4]diazonin]-12′-yl)oxy)carbonyl)(methyl)amino)pyridin-3-yl)methyl)-N-(((phosphonooxy)methoxy)carbonyl)glycinate], the EC50 in series [1] (setting [4]) came out at 2.34 nM. In series [2], this compound returned a CC50 of 12900 nM. The thermodynamic solubility in series [3] amounted to 4170 µg/mL (≈ 4.38 mM).
Consider `CC1=NO[C@@]2(CC[C@H](C)N3C[C@H]2n2cc(C(=O)NCc4ccc(F)cc4F)c(=O)c(OC(=O)OCCC(C)(C)c4c(CC(=O)O)cc(C)cc4OP(=O)(O)O)c2C3=O)C1` [Compound 25, 2-(2-(4-(((((3′S,5S,7′R)-10′-((2,4-difluorobenzyl)carbamoyl)-3,3′-dimethyl-1′,11′-dioxo-1′,4′,5′,11′-tetrahydro-3′H,4H,7′H-spiro[isoxazole-5,6′-[2,7]methanopyrido[1,2-a][1,4]diazonin]-12′-yl)oxy)carbonyl)oxy)-2-methylbutan-2-yl)-5-methyl-3-(phosphonooxy)phenyl)acetic acid], for which the EC50 in series [1] (setting [4]) was 1.43 nM. Besides, the CC50 in series [2] amounted to 11600 nM. In addition, in series [3], the thermodynamic solubility worked out at 4760 µg/mL (≈ 5.63 mM).
The matching figures for `CC1=NO[C@@]2(CC[C@H](C)N3C[C@H]2n2cc(C(=O)NCc4ccc(F)cc4F)c(=O)c(OCOC(=O)N(C)Cc4ccc(C(=O)O)cc4OP(=O)(O)O)c2C3=O)C1` [Compound 74, 4-(((((((3′S,5S,7′R)-10′-((2,4-difluorobenzyl)carbamoyl)-3,3′-dimethyl-1′,11′-dioxo-1′,4′,5′,11′-tetrahydro-3′H,4H,7′H-spiro[isoxazole-5,6′-[2,7]methanopyrido[1,2-a][1,4]diazonin]-12′-yl)oxy)methoxy)carbonyl)(methyl)amino)methyl)-3-(phosphonooxy)benzoic acid]: 6.61 nM, 29400 nM and 4860 µg/mL (≈ 6.05 mM).
Take `CC1=NO[C@@]2(CC[C@H](C)N3C[C@H]2n2cc(C(=O)NCc4ccc(F)cc4F)c(=O)c(OCOC(=O)OCC4(COP(=O)(O)O)COC(=O)N4C)c2C3=O)C1` (stereo partly drawn) [Compound 55, (((3′S,5S,7′R)-10′-((2,4-difluorobenzyl)carbamoyl)-3,3′-dimethyl-1′,11′-dioxo-1′,4′,5′,11′-tetrahydro-3′H,4H,7′H-spiro[isoxazole-5,6′-[2,7]methanopyrido[1,2-a][1,4]diazonin]-12′-yl)oxy)methyl ((3-methyl-2-oxo-4-((phosphonooxy)methyl)oxazolidin-4-yl)methyl) carbonate]: the EC50 in series [1] (setting [5]) was found to be 2.5 nM. In addition, the CC50 at 5 days in series [2] came out at 12900 nM. In series [3], this compound yielded a thermodynamic solubility at 24 h of 5520 µg/mL (≈ 7.05 mM).
As to `CC1=NO[C@@]2(CC[C@H](C)N3C[C@H]2n2cc(C(=O)NCc4ccc(F)cc4F)c(=O)c(OCOC(=O)OCCC(C)(C)c4c(CC(=O)N[C@@H](CC(=O)O)C(=O)O)cc(C)cc4OP(=O)(O)O)c2C3=O)C1` [Compound 24, (2-(2-(4-((((((3′S,5S,7′R)-10′-((2,4-difluorobenzyl)carbamoyl)-3,3′-dimethyl-1′,11′-dioxo-1′,4′,5′,11′-tetrahydro-3′H,4H,7′H-spiro[isoxazole-5,6′-[2,7]methanopyrido[1,2-a][1,4]diazonin]-12′-yl)oxy)methoxy)carbonyl)oxy)-2-methylbutan-2-yl)-5-methyl-3-(phosphonooxy)phenyl)acetyl)-L-aspartic acid], the EC50 in series [1] (setting [4]) was determined as 1.98 nM. Moreover, in series [2], the CC50 stood at 12300 nM. In addition, the thermodynamic solubility in series [3] was determined as 4900 µg/mL (≈ 4.95 mM).
The matching figures for `CC1=NO[C@@]2(CC[C@H](C)N3C[C@H]2n2cc(C(=O)NCc4ccc(F)cc4F)c(=O)c(OC(=O)N(C)c4ncccc4CN(CC(=O)OC(C)(C)C)C(=O)OCOP(=O)(O)O)c2C3=O)C1` [Compound 5, tert-butyl N-((2-(((((3′S,5S,7′R)-10′-((2,4-difluorobenzyl)carbamoyl)-3,3′-dimethyl-1′,11′-dioxo-1′,4′,5′,11′-tetrahydro-3′H,4H,7′H-spiro[isoxazole-5,6′-[2,7]methanopyrido[1,2-a][1,4]diazonin]-12′-yl)oxy)carbonyl)(methyl)amino)pyridin-3-yl)methyl)-N-(((phosphonooxy)methoxy)carbonyl)glycinate]: 1.24 nM, 10300 nM and 4010 µg/mL (≈ 4.37 mM).
With `CCCCCCCCCCCCCC(=O)Nc1ccc(CC(=O)Oc2c3n(cc(C(=O)NCc4ccc(F)cc4F)c2=O)[C@@H]2CN(C3=O)[C@@H](C)CC[C@]23CC(OC)=NO3)cc1` [Compound 93, (3′S,5S,7′R)-10′-((2,4-difluorobenzyl)carbamoyl)-3-methoxy-3′-methyl-1′,11′-dioxo-1′,4′,5′,11′-tetrahydro-3′H,4H,7′H-spiro[isoxazole-5,6′-[2,7]methanopyrido[1,2-a][1,4]diazonin]-12′-yl 2-(4-tetradecanamidophenyl)acetate], the EC50 in series [1] (setting [5]) was 1.36 nM. The CC50 at 5 days in series [2] is at least 50000 nM. Moreover, the solubility (thermodynamic) at 24 h in series [3] worked out at 6 µg/mL (≈ 0.00709 mM).
Turning to `CC1=NO[C@@]2(CC[C@H](C)N3C[C@H]2n2cc(C(=O)NCc4ccc(F)cc4F)c(=O)c(OCOC(=O)[C@H]4[C@@H](COP(=O)(O)O)[C@@H]4C(=O)O)c2C3=O)C1` [Compound 79, (1S,2S,3S)-2-(((((3′S,5S,7′R)-10′-((2,4-difluorobenzyl)carbamoyl)-3,3′-dimethyl-1′,11′-dioxo-1′,4′,5′,11′-tetrahydro-3′H,4H,7′H-spiro[isoxazole-5,6′-[2,7]methanopyrido[1,2-a][1,4]diazonin]-12′-yl)oxy)methoxy)carbonyl)-3-((phosphonooxy)methyl)cyclopropane-1-carboxylic acid], the EC50 in series [1] (setting [5]) stood at 2.23 nM. In series [2], this compound came in with a CC50 at 5 days of 12500 nM. In addition, the thermodynamic solubility at 24 h in series [3] stood at 4520 µg/mL (≈ 6.11 mM).
The matching figures for `CC1=NO[C@@]2(CC[C@H](C)N3C[C@H]2n2cc(C(=O)NCc4ccc(F)cc4F)c(=O)c(OCOC(=O)N(C)C[C@@H]4CCCN4)c2C3=O)C1` [Compound 13, (((3′S,5S,7′R)-10′-((2,4-difluorobenzyl)carbamoyl)-3,3′-dimethyl-1′,11′-dioxo-1′,4′,5′,11′-tetrahydro-3′H,4H,7′H-spiro[isoxazole-5,6′-[2,7]methanopyrido[1,2-a][1,4]diazonin]-12′-yl)oxy)methyl methyl(((S)-pyrrolidin-2-yl)methyl)carbamate]: 0.762 nM, 10800 nM and 1980 µg/mL (≈ 3.02 mM).
As for `CC1=NO[C@@]2(CC[C@H](C)N3C[C@H]2n2cc(C(=O)NCc4ccc(F)cc4F)c(=O)c(OCc4ccc(OP(=O)(O)O)cc4)c2C3=O)C1` [Compound 41, 4-((((3′S,5S,7′R)-10′-((2,4-difluorobenzyl)carbamoyl)-3,3′-dimethyl-1′,11′-dioxo-1′,4′,5′,11′-tetrahydro-3′H,4H,7′H-spiro[isoxazole-5,6′-[2,7]methanopyrido[1,2-a][1,4]diazonin]-12′-yl)oxy)methyl)phenyl dihydrogen phosphate], the EC50 in series [1] (setting [4]) came to 0.727 nM. The CC50 in series [2] is 12000 nM. Further, the thermodynamic solubility in series [3] worked out at 5080 µg/mL.
For the compound `CCCCCCCCCCCCCC(=O)Oc1ccc(C(=O)Oc2c3n(cc(C(=O)NCc4ccc(F)cc4F)c2=O)[C@@H]2CN(C3=O)[C@@H](C)CC[C@]23CC(OC)=NO3)cc1` [Compound 99, (3′S,5S,7′R)-10′-((2,4-difluorobenzyl)carbamoyl)-3-methoxy-3′-methyl-1′,11′-dioxo-1′,4′,5′,11′-tetrahydro-3′H,4H,7′H-spiro[isoxazole-5,6′-[2,7]methanopyrido[1,2-a][1,4]diazonin]-12′-yl 4-(tetradecanoyloxy)benzoate], the EC50 in series [1] (setting [5]) amounted to 3.03 nM. For the same compound, the CC50 at 5 days in series [2] is at least 50000 nM. In series [3], the thermodynamic solubility at 24 h was determined as 13 µg/mL (≈ 0.0156 mM).
Regarding `CCCCCCCCCCCCCC(=O)OCc1ccccc1C(=O)Oc1c2n(cc(C(=O)NCc3ccc(F)cc3F)c1=O)[C@@H]1CN(C2=O)[C@@H](C)CC[C@]12CC(C)=NO2` [Compound 92, (3′S,5S,7′R)-10′-((2,4-difluorobenzyl)carbamoyl)-3,3′-dimethyl-1′,11′-dioxo-1′,4′,5′,11′-tetrahydro-3′H,4H,7′H-spiro[isoxazole-5,6′-[2,7]methanopyrido[1,2-a][1,4]diazonin]-12′-yl 2-((tetradecanoyloxy)methyl)benzoate], the EC50 in series [1] (setting [5]) was 4.42 nM. In series [2], this compound showed a CC50 at 5 days of at least 50000 nM. Also, in series [3], the solubility (thermodynamic) at 24 h was found to be 3 µg/mL (≈ 0.00361 mM).
